Laboratory results published in patent US10052281B2, “Local administration-type pharmaceutical for improving dysphagia” (MEIJI SEIKA PHARMA CO., LTD., priority 2011, dated 2018).
“Also recorded” adds a separate entry of the source.

Tests used:
[1] = test system: guinea pig dysphagia model induced by repeated administrations of haloperidol; assay: Swallowing reflex (water drinking frequency) in dysphagia model induced by repeated administrations of haloperidol; assay type: in vivo; conditions: for water drinking frequency (dysphagia improving effect): oral (intragastric)
[2] = test system: normal guinea pig; assay: Swallowing reflex in normal guinea pig after local pharyngeal administration of substance P receptor antagonist; assay type: in vivo
Experimental: (§1) To 6 week-old female Hartley guinea pigs (330 to 390 g) habituated for 1 week after receipt, a physiological saline solution, or a haloperidol solution was injected subcutaneously in a dosage of 1 mg/kg approx. every 12 hours twice per day for 7 days. Thereafter, a guinea pig was fixed at extremities, and 500 μL of distilled water was injected over 5 sec through a device to a part just before the pharynx, and the total frequency of swallowing until 10 sec and 30 sec from the injection was measured based on a muscle movement in a pharyngeal site. Thereafter a physiological saline solution, or a haloperidol solution was injected again (1 mg/kg).
FK888 (10 μM, 50 μL/guinea pig), which is a substance P receptor antagonist, was administered locally with a spray device to a pharyngeal site of a guinea pig, and water drinking reflection frequency was measured in the same way as in Experiment 1.

[3] = test system: Hartley guinea pigs; assay: Swallowing reflex (water drinking frequency) after repeated administrations of haloperidol; assay type: in vivo, guinea pig; conditions: haloperidol 1 mg/kg s.c. twice per day for 7 days, compared to physiological saline group
Experimental: as §1
The measurements were repeated totally 4 times at intervals of 1 min. […] Based on the result, the guinea pig was used as a dysphagia model induced by repeated administrations of haloperidol in the following experiments for evaluation of drug efficacy.

[4] = test system: blood pressure increase by intravenous administration of angiotensin I in a normal rat; assay: Blood pressure increase induced by intravenous angiotensin I; conditions: oral, angiotensin I 300 ng/kg i.v. after 1 hour, SD male rats
Experimental: The respective dose of a captopril, or lisinopril aqueous solution was administered orally and the blood pressures were measured after 1 hour. Thereafter, angiotensin I was administered intravenously (300 ng/kg) to induce blood pressure increase and a change in the mean blood pressure was measured.

[5] = test system: guinea pig dysphagia model induced by repeated administrations of haloperidol; assay: Swallowing reflex (water drinking frequency) in dysphagia model induced by repeated administrations of haloperidol; assay type: in vivo; conditions: local spray to pharyngeal mucosa, 100 μL of 50 μM aqueous solution, 2 hours after administration

SMILES: CN(Cc1ccccc1)C(=O)[C@H](Cc1ccc2ccccc2c1)NC(=O)[C@@H]1C[C@@H](O)CN1C(=O)c1cn(C)c2ccccc12 [FK888]
- lower limit not influencing swallowing reflex ([1]; 100 μL local spray to pharyngeal mucosa): 10 nM
- increase in water drinking frequency by lisinopril (50 nM, 100 μL) ([1]; FK888 10 nM, 100 μL, local spray 15 min after lisinopril administration): almost completely suppressed
- swallowing reflex (water drinking reflection frequency) ([2]; FK888 10 μM, 50 μL/guinea pig, local spray to pharyngeal site): decrease in swallowing reflex

SMILES: C[C@H](CS)C(=O)N1CCC[C@H]1C(=O)O [captopril]
- water drinking frequency ([1]; 100 μL of 50 μM aqueous solution sprayed to pharyngeal mucosa, 30 min after spray): significant increase; also recorded: exhibited an improving effect on dysphagia
- water drinking frequency ([1]; 100 μL of 50 mM aqueous solution sprayed to pharyngeal mucosa, 30 min after spray): significant increase; also recorded: exhibited an improving effect on dysphagia
- water drinking frequency (dysphagia improving effect) ([1]; same dose as 100 μL of 50 μM aqueous solution, 30 min after administration): did not exert an influence
- water drinking frequency (dysphagia improving effect) ([1]; same dose as 100 μL of 50 mM aqueous solution, 30 min after administration): did not exert an influence
- decrease in swallowing reflex by FK888 administration ([2]; captopril aqueous solution sprayed to pharyngeal site 30 min before FK888): suppressed

SMILES: O=C(CCCN1CCC(O)(c2ccc(Cl)cc2)CC1)c1ccc(F)cc1 [haloperidol]
- water drinking frequency [3]: significantly decreased

SMILES: NCCCC[C@H](N[C@@H](CCc1ccccc1)C(=O)O)C(=O)N1CCC[C@H]1C(=O)O [lisinopril]
- dose giving significant increase in water drinking frequency ([1]; 100 μL aqueous solution sprayed to pharyngeal mucosa): ≥ 50 nM
- water drinking frequency ([1]; 100 μL of 0.5 nM to 500 μM aqueous solution (pH 7.0) sprayed to pharyngeal mucosa): dose-dependent increase
- water drinking frequency ([1]; 100 μL of 50 nM aqueous solution sprayed to pharyngeal mucosa, 30 min after administration): increase in water drinking frequency
- water drinking frequency (dysphagia improving effect) ([1]; same dose as the local administration (100 μL of 50 mM), 2 hours after administration): exerted no influence; also recorded: no dysphagia improving effect was observed
- vasopressor reaction by administration of angiotensin I (change in mean blood pressure) ([4]; 100 μL of 5 μM aqueous solution): had no influence
- vasopressor reaction by administration of angiotensin I (change in mean blood pressure) ([4]; 100 μL of 5 mM aqueous solution): suppressed a vasopressor reaction
- water drinking frequency (dysphagia improving effect) [5]: exhibited an improving effect on dysphagia
